Source: US20040126823A1, “Modulation of prostaglandin synthesis and cancer growth” (priority 2002, published 2004)

Test system: Tpl2+/+ macrophages
Assay: PGE2 levels in LPS treated macrophages (ELISA of culture supernatants)
Assay type: cell-based, mouse
Details: pre-treatment with 20 pM PD98059; Tpl2+/+ macrophages stimulated for 4.5 hrs with LPS
Experimental: Tpl2+/+ and Tpl2−/− macrophage cultures were stimulated with […] LPS. Culture supernatants collected at 0, 3, 4.5, 6 or 10 hrs were analysed for PGE2 levels by ELISA. Unstimulated Tpl2+/+ and Tpl2−/− macrophage cultures secreted similar levels of PGE2 respectively. PGE2 levels produced by unstimulated cells were given the arbitrary value of 1. The bar graphs show the fold induction of PGE2 (±SD) compared to control untreated cultures.

## COc1cccc(-c2cc(=O)c3ccccc3o2)c1N [PD98059]
  PGE2 secretion: inhibited PGE2 secretion
